Key:
KLF15 = KLF15 activity in ADR-treated cultured human podocytes; type: cell-based; conditions: nonpermissive conditions 37° C., vs DMSO
[1] = test system: KLF15 promoter mutated at the GR binding site; test: GR-mutant KLF15 reporter assay; type: cell-based, human
KLF15 promoter [2] = test: KLF15 reporter human podocyte assay (HTS, dose-response, primary screening); type: cell-based; conditions: for EC50: dose-response curve, human podocytes, luciferase/renilla
Procedure: A stable reporter assay directed at KLF15 promoter region (4.3 kb region) was generated in human podocytes, a fragment of human KLF15 promoter upstream of the start codon, by amplifying and subcloning it into the firefly luciferase reporter plasmid (co-transfection with renilla to serve as internal controls). KLF15 promoter activity is measured as a ratio of luciferase to renilla activity. Using this reporter cell line, a cell-based HTS assay was developed using recently reported cell-seeding methodology specific to cultured podocytes (16).

LPS-treated mice = test: LPS-induced albuminuria murine model; type: in vivo; conditions: vs DMSO
Procedure: Referring to FIG. 10D, C57BL/6 mice were treated with lipopolysaccharide (LPS) at dose of 10 μg/g in two divided doses 24 hours apart intraperitoneally to induce podocyte injury and albuminuria.

[3] = test system: Db/db mice on the FVB/N background; test: db/db murine model of progressive diabetic kidney disease; type: in vivo; conditions: subcutaneous minipump, 0.85 μg/day for 14 days
From the text: Db/db mice on the FVB/N background were utilized as a murine model of progressive diabetic kidney disease (DKD), where there is significant podocyte injury and glomerulosclerosis.

human podocytes [4] = test: KLF15 and synaptopodin expression and actin stress fibers in LPS-treated human podocytes; type: cell-based; conditions: LPS conditions, vs DMSO-treated podocytes
KLF15 reporter = KLF15 reporter activity in LPS-treated human podocytes (podocyte stress model); type: cell-based
Procedure: (§1) FIG. 10A-D show representative data illustrating the dose-response curve and EC50 (FIG. 10A), KLF15 reporter activity (FIG. 10B), and Renilla activity (cell viability) (FIG. 10C) in LPS-treated HP, and the therapeutic efficacy in abrogating albuminuria (biomarker of kidney disease) in LPS-treated mice (FIG. 10D).
(§2) After the synthesis of these novel analogues, a primary screening assay was conducted.

human podocytes [5] = test: Podocyte survival (Renilla, cell viability) after LPS treatment; type: cell-based; conditions: LPS-treated human podocytes
Procedure: as §1, §2

KLF15 promoter [6] = test: KLF15 promoter activity in human podocytes, KLF15 agonist combined with dexamethasone; type: cell-based; conditions: K-7 combined with DEX, dose-response curves
human podocytes [7] = test: Cell viability (renilla activity, MTT assay) in ADR-treated cultured human podocytes; type: cell-based; conditions: vs K-9, K-15, DEX, DMSO

| EC50 (KLF15 promoter [2]) [nM] | SMILES | KLF15 activity (KLF15) | KLF15 reporter activity with KLF15 promoter mutated at the GR binding site [1] | albuminuria (LPS-treated mice; 5 mg/kg every 12 hours, LPS-proteinuric mice) | albuminuria (LPS-treated mice; C57BL/6 mice, LPS 10 μg/g, subcutaneous minipump 3.5 μg/day for 48 hours) | podocyte effacement ([3]; PAS staining and TEM) | glomerular basement membrane (GBM) thickness ([3]; quantified with ImageJ) | glomerular volume ([3]; quantified with ImageJ) | KLF15 expression (human podocytes [4]) | actin stress fiber formation (human podocytes [4]) | synaptopodin expression (human podocytes [4]) | KLF15 reporter activity after LPS treatment (KLF15 reporter) | podocyte survival after LPS treatment (human podocytes [5]) | genes involved in IL-17R and NF-κB signaling, chemokine/inflammatory signaling and fibrosis pathways (RNA-seq enrichment) (IL-17R signaling; K-7 vs DMSO in LPS-treated podocytes) | transcripts downstream of IL-17R signaling (CSF2, CSF3, CXCL2, CXCL3, CCL2, IL1β) (IL-17R signaling; cultured human podocytes, LPS treatment) | DEX dose required to induce KLF15 reporter activity (KLF15 promoter [6]) | maximal KLF15 reporter activity (KLF15 promoter [2]; dose escalation, at similar concentrations to DEX) | cell viability (renilla activity and MTT assay) (human podocytes [7]) |
| --- | --- | --- | --- | --- | --- | --- | --- | --- | --- | --- | --- | --- | --- | --- | --- | --- | --- | --- |
| ~76.2 | Nc1ccccc1-n1nc2ccc3ccccc3c2n1 [Compound K-9] | restored KLF15 activity | induce KLF15 reporter activity independent of GR signaling |  |  |  |  |  |  |  |  |  |  |  |  |  |  |  |
| ~10.9 | O=C(Nc1ccc2ccccc2c1)c1ccc(Cl)cc1Cl [Compound K-15] | restored KLF15 activity | induce KLF15 reporter activity independent of GR signaling |  |  |  |  |  |  |  |  |  |  |  |  |  |  |  |

| SMILES | EC50 (KLF15 promoter [2]) [nM] | KLF15 activity (KLF15) | KLF15 reporter activity with KLF15 promoter mutated at the GR binding site [1] | albuminuria (LPS-treated mice; 5 mg/kg every 12 hours, LPS-proteinuric mice) | albuminuria (LPS-treated mice; C57BL/6 mice, LPS 10 μg/g, subcutaneous minipump 3.5 μg/day for 48 hours) | podocyte effacement ([3]; PAS staining and TEM) | glomerular basement membrane (GBM) thickness ([3]; quantified with ImageJ) | glomerular volume ([3]; quantified with ImageJ) | KLF15 expression (human podocytes [4]) | actin stress fiber formation (human podocytes [4]) | synaptopodin expression (human podocytes [4]) | KLF15 reporter activity after LPS treatment (KLF15 reporter) | podocyte survival after LPS treatment (human podocytes [5]) | genes involved in IL-17R and NF-κB signaling, chemokine/inflammatory signaling and fibrosis pathways (RNA-seq enrichment) (IL-17R signaling; K-7 vs DMSO in LPS-treated podocytes) | transcripts downstream of IL-17R signaling (CSF2, CSF3, CXCL2, CXCL3, CCL2, IL1β) (IL-17R signaling; cultured human podocytes, LPS treatment) | DEX dose required to induce KLF15 reporter activity (KLF15 promoter [6]) | maximal KLF15 reporter activity (KLF15 promoter [2]; dose escalation, at similar concentrations to DEX) | cell viability (renilla activity and MTT assay) (human podocytes [7]) |
| --- | --- | --- | --- | --- | --- | --- | --- | --- | --- | --- | --- | --- | --- | --- | --- | --- | --- | --- |
| CSc1ccc(NC(=O)Nc2cc(C)ccn2)cc1 [Compound K-7] | ~11.9 | restored KLF15 activity | induce KLF15 reporter activity independent of GR signaling | significant improvement in albuminuria | significantly reduced albuminuria | attenuated podocyte effacement | reduced | reduced glomerular volume | restored | restored | restored | improved KLF15 reporter activity | improved | significant decrease | suppressed | reduced the DEX dose required to induce KLF15 reporter activity | higher maximal KLF15 reporter activity | significantly improved |

Source: patent US12269803B2, “Krüppel-like factor 15 (KLF15) small molecule agonists in kidney disease” (United States Government as represented by the Department …, priority 2020, dated 2025)
